This note sets out measurements from article PMC5911928 (European journal of medicinal chemistry, 2017).

The structures appear in SMILES notation. ≈ marks a conversion by molar mass, not a printed value.

Data set [1] in a line: Human microsomal stability analysis. The note with it: human liver microsomes. It is filed as in vitro ADME.
For data set [2], the system named is MRSA USA400 inside infected murine macrophage (J774) cells. Description: Eradication of intracellular MRSA in infected macrophages. The note with it: 16 μg/mL, J774 cells infected with MRSA USA400.
Data set [3] deals with MRSA USA300. Description: In vivo antibacterial activity in MRSA-infected C. elegans. Details: species or system Caenorhabditis elegans. The note with it: for reduction of the burden of MRSA USA300: C. elegans AU37, 20 μg/mL, 18 hours treatment.
The subject of data set [4] is J774 cells. Description: MTS cytotoxicity analysis against murine macrophages. The format is cell-based. The note with it: MTS assay, tested at 8, 16, 32, 64 μg/mL.
The subject of data set [5] is HaCaT cells. Description: MTS cytotoxicity analysis against human keratinocytes. It is filed as cell-based. The note with it: MTS assay, tested at 8, 16, 32, 64 μg/mL.
The test system of data set [6] is B. subtilis. Description: Bacterial Cytological Profiling. It is filed as cell-based, Bacillus subtilis. The note with it: for cell shape (BCP) in media containing MSM: LB-MSM, two hours, 4i 4 × MIC, oxacillin 5×MIC, D-cycloserine 1×MIC.
For data set [7], the system named is UDP-N-acetylmuramyl pentapeptide in S. aureus NRS107 (RN4220). Description: Detection of final soluble cell wall precursor by HPLC/MS. The format is cell-based, Staphylococcus aureus. The note with it: 10 × MIC, 30 minutes.
Data set [8] has as its system drug-resistant S. aureus clinical isolates. Description: Anti-MRSA activity over the panel of S. aureus clinical isolates. The note with it: against both MRSA and VRSA. It is filed as cell-based, Staphylococcus aureus.
Data set [9] concerns MRSA USA400. Description: Time-kill assay. The note with it: 4 × MIC, MRSA USA400, 37 °C, 24-hour incubation.
The subject of data set [10] is VRSA10. Description: MIC/MBC broth microdilution. The format is cell-based. The note with it: Staphylococcus aureus.
Data set [11] deals with S. aureus NRS107 (RN4220). Description: microbe, parasite or virus in culture. It is filed as cell-based. The note with it: Staphylococcus aureus.
For data set [12], the system named is VRSA4. Description: MIC/MBC broth microdilution. The format is cell-based. The note with it: Staphylococcus aureus.
Data set [13] relates to B. subtilis. Description: MIC against B. subtilis. The format is cell-based. The note with it: Bacillus subtilis.
Setting [14] is: pH 7.4, NADPH-Free CLint, without NADPH.

For `CCCCc1ccc(-c2nc(C)c(/C(C)=N/NC(=N)N)s2)cc1` [Compound 1a, reference compound], the microsomal CLint in data set [1] (setting [14]) was below 9.6 µL/min/mg.
In the case of `Cc1nc(-c2ccc3ccccc3c2)sc1-c1cnc(NC(=N)N)s1` [Compound 4i, 1-(4′-Methyl-2′-(naphthalen-2-yl)-[5,5′-bithiazol]-2-yl)guanidine], the “reduction of MRSA CFU/mL in infected macrophages” value in data set [2] (four hours of treatment) is on record as “unable to reduce”. The “reduction of the burden of MRSA USA300” value in data set [3] is given as “approximately 30%”. Further, in [3] (C. elegans, 20 μg/mL, 18 hours, same experimental conditions), the “reduction of MRSA burden relative to lead compound 1c and vancomycin” value was “three”. Besides, the “concentration up to which non-toxic” value in data set [4] was 16000 ng/mL. Besides, the “concentration up to which not toxic” value in [5] was 32000 ng/mL. Moreover, the microsomal CLint in data set [1] (pH 7.4, NADPH-Dependent CLint, with NADPH) is 17.3 µL/min/mg; in [1] (setting [14]), below 9.6 µL/min/mg. In addition, the “effect on cells (BCP)” value in data set [6] (5 × MIC, two hours of exposure) was “lysed”. Moreover, the “cell shape (BCP) in media containing MSM” value in [6] is “misshapen and formed small bulges”. Moreover, the “peak of UDP-N-acetylmuramyl pentapeptide (accumulation)” value in data set [7] was “noticeable increase”. The “MBC values relative to MIC values” in data set [8] was “matched or were two-fold higher”. For the same molecule, the “time to completely eliminate MRSA cells” value in data set [9] is “four”.
For the molecule `CC(=O)NC[C@H]1CN(c2ccc(N3CCOCC3)c(F)c2)C(=O)O1` [Linezolid], the MIC in [10], in data set [11] and in [12] was 2 µg/mL (≈ 5.93 µM) each time.
On to `CN[C@H](CC(C)C)C(=O)N[C@H]1C(=O)N[C@@H](CC(N)=O)C(=O)N[C@H]2C(=O)N[C@H]3C(=O)N[C@H](C(=O)N[C@H](C(=O)O)c4cc(O)cc(O)c4-c4cc3ccc4O)[C@H](O)c3ccc(c(Cl)c3)Oc3cc2cc(c3O[C@@H]2O[C@H](CO)[C@@H](O)[C@H](O)[C@H]2O[C@H]2C[C@](C)(N)[C@H](O)[C@H](C)O2)Oc2ccc(cc2Cl)[C@H]1O` [Vancomycin, reference compound], for which the “reduction of MRSA CFU in infected macrophages” value in data set [2] (24 hours of treatment) is given as “not able to reduce”. Besides, the “reduction of the burden of MRSA USA300” value in data set [3] was “low reduction”. In addition, the “peak of UDP-N-acetylmuramyl pentapeptide (accumulation)” value in data set [7] is recorded as “noticeable increase”.
In data set [13], `Cc1onc(-c2ccccc2Cl)c1C(=O)N[C@@H]1C(=O)N2[C@@H]1SC(C)(C)[C@@H]2C(=O)O` [cloxacillin] showed an MIC of 0.47 µg/mL (≈ 1.08 µM).
Turning to `Cc1onc(-c2ccccc2)c1C(=O)N[C@@H]1C(=O)N2[C@@H]1SC(C)(C)[C@@H]2C(=O)O` [oxacillin, reference compound], the “cell shape (BCP) in media containing MSM” value in data set [6] was “large bulges and misshapen cells”.
In the case of `N[C@@H]1CONC1=O` [ᴅ-cycloserine], the MIC in data set [13] was found to be 37.5 µg/mL (≈ 367 µM).
